In the case of `CNCC1C2CN(C(=O)C(O)(c3ccc(C)cc3)C(F)(F)F)CC12` (stereo not drawn), the melting point – broadly, the temperature, or range, at which the solid turns liquid – lay in the range of 191 to 194 °C.

With `CN(C)C1C2CN(C(=O)C(O)(c3ccccc3)C3CCCCC3)CC21` (stereo not drawn), the melting point lay within 71.3 to 72.7 °C.

`CNC1C2CN(C(=O)C(O)(c3ccc(C)cc3)C(F)(F)F)CC21` (stereo not drawn) came in with a melting point of 178 to 179.4 °C.

The compound `CNC1C2CN(C(=O)C(O)(c3ccccc3)C(F)(F)F)CC21` (stereo not drawn) came in with a melting point of 179.7 to 182 °C.

In turn, `CNCC1C2CN(C(=O)C(O)(c3ccccc3)C(F)(F)F)CC12` (stereo not drawn) had a melting point of 110 to 113 °C.

For `CNCC1C2CN(C(=O)C(O)(c3ccccc3)C3CCCCC3)CC12` (stereo not drawn), the melting point lay within 140 to 142 °C.

For the origin of these results see patent US20100016400A1, “AZABICYCLIC MUSCARINIC RECEPTOR ANTAGONISTS” (priority 2004, published 2010).
